Test results: patent US11739098B2 (BRISTOL-MYERS SQUIBB COMPANY, priority 2017, dated 2023)

Tests used:
Type in all cases: cell-based
human TLR9 = target: T1, human TLR9 (Homo sapiens, UniProt Q9NR96); test: TLR9 inhibition reporter assay (HEK-Blue cells, SEAP reporter, ODN2006 stimulation); conditions: HEK-Blue cells overexpressing human TLR9, SEAP reporter, ODN2006 5 nM
T1 construct: host or cells: HEK-Blue cells (HEK293-derived reporter line)
T1 sequence (Q9NR96 26-1032): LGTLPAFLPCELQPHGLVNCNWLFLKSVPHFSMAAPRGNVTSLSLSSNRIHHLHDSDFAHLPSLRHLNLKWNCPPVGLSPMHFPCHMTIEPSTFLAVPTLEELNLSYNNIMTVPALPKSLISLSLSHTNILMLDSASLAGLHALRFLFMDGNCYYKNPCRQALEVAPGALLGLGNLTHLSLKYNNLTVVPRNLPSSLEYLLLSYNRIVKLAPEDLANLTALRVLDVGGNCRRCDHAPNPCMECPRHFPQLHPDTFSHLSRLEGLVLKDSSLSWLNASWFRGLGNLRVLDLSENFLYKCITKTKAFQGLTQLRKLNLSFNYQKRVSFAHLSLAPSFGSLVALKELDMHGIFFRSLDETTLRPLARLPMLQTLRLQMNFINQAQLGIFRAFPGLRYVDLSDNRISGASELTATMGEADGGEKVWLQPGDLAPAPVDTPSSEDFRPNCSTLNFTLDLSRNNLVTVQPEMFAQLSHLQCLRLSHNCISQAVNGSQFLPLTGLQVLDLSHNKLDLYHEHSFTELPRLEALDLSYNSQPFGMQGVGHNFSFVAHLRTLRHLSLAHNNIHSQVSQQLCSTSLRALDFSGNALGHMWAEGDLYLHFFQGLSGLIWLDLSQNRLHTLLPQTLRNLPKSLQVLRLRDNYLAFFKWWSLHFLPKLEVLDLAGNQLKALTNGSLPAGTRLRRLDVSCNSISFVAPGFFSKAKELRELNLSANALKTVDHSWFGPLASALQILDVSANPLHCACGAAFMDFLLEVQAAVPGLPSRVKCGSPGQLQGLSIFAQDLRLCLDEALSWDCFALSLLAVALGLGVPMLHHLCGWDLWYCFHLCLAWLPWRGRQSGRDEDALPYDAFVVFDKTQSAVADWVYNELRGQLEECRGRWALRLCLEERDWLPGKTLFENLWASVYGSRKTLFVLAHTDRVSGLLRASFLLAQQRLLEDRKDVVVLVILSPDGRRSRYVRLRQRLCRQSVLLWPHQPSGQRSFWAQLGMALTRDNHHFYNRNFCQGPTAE
Method in brief: (§1)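 Cells seeded per well (15000 TLR7, 20,000 TLR8, 25,000 TLR9); compound added over 0.05 nM–50 μM for 30 min at room temperature; agonist added (TLR7 gardiquimod 7.5 μM, TLR8 R848 15.9 μM, TLR9 ODN2006 5 nM); 22 h at 37 °C; SEAP measured; percent inhibition calculated.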

human TLR7 = target: T2, human TLR7 (Homo sapiens, UniProt Q9NYK1); test: TLR7 inhibition reporter assay (HEK-Blue cells, SEAP reporter, gardiquimod stimulation); conditions: HEK-Blue cells overexpressing human TLR7, SEAP reporter, gardiquimod 7.5 μM
T2 construct: host or cells: HEK-Blue cells (HEK293-derived reporter line)
T2 sequence (Q9NYK1 27-1049): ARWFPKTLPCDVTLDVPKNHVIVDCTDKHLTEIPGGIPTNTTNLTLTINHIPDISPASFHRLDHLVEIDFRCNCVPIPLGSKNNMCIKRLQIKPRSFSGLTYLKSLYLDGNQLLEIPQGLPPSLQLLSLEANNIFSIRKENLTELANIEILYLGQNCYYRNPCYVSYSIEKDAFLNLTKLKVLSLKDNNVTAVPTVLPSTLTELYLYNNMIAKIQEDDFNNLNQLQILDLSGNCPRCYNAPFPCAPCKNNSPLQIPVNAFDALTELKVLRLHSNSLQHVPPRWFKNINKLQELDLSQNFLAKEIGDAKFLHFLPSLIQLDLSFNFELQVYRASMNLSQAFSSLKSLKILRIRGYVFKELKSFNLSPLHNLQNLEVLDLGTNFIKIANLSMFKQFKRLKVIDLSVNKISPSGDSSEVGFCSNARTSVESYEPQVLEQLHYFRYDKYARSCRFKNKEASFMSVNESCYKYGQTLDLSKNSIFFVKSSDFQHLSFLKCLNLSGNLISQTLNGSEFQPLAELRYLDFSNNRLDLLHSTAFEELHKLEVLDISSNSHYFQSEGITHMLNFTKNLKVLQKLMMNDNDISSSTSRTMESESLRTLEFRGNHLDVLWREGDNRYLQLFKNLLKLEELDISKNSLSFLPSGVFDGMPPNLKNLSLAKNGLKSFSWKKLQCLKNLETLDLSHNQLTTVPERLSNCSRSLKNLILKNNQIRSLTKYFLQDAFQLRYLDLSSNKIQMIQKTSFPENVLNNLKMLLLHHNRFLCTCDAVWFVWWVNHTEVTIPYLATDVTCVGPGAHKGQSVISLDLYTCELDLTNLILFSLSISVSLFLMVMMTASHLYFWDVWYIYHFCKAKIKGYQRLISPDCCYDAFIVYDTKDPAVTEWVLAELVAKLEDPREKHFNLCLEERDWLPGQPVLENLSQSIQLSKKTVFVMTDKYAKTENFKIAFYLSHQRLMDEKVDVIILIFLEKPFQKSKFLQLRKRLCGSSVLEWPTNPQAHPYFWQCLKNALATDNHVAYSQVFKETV
Method in brief: as §1

human TLR8 = target: T3, human TLR8 (Homo sapiens, UniProt Q9NR97); test: TLR8 inhibition reporter assay (HEK-Blue cells, SEAP reporter, R848 stimulation); conditions: HEK-Blue cells overexpressing human TLR8, SEAP reporter, R848 15.9 μM
T3 construct: host or cells: HEK-Blue cells (HEK293-derived reporter line)
T3 sequence (Q9NR97 27-1041): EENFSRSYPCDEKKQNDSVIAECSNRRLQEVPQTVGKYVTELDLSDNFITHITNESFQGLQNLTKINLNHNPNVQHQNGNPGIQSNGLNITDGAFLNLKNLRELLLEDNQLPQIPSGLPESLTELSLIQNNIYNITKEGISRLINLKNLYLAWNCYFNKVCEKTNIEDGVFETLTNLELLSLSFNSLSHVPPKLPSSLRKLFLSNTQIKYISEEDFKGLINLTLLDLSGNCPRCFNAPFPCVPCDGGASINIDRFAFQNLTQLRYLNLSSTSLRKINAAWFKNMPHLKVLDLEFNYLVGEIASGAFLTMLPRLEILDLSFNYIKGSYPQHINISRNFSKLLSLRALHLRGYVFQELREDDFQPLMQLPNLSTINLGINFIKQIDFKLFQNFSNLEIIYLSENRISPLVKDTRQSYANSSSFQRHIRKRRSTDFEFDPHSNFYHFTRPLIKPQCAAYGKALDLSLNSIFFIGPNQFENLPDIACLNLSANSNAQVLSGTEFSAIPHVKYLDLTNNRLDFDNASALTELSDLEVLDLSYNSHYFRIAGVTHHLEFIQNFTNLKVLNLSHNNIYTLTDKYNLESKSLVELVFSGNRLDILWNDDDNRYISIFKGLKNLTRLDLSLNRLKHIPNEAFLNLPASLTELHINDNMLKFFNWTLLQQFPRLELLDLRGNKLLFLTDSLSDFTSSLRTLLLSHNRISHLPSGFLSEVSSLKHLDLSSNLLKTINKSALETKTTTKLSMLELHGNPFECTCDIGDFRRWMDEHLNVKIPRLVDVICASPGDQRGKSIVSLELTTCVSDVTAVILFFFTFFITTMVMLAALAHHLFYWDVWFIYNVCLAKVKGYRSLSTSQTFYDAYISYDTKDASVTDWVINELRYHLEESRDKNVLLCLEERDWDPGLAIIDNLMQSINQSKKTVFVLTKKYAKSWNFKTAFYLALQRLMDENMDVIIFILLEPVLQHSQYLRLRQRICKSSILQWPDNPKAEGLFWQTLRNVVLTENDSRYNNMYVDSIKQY
Method in brief: as §1

Row | SMILES | IC50 (human TLR9) | IC50 (human TLR7) | IC50 (human TLR8)
1 | Cc1nc2cc(-c3[nH]c4ccc(C5CCN(CC(=O)N(C)C)CC5)cc4c3C(C)C)cc(C)c2o1 [Example 338, 2-(4-(2-(2,7-dimethylbenzo [d]oxazol-5-yl)-3-isopropyl-1H-indol-5-yl)piperidin-1-yl)-N,N-dimethylacetamide] | 1000 to 50000 nM | < 100 nM | 100 to 1000 nM
2 | CNC(=O)CN1CCC(c2ccc3[nH]c(-c4cc(C)c5nccn5n4)c(C(C)C)c3c2)CC1 [Example 448, 2-(4-(3-isopropyl-2-(8-methylimidazo[1,2-b]pyridazin-6-yl)-1H-indol-5-yl)piperidin-1-yl)-N-methylacetamide] | 1000 to 50000 nM | < 100 nM | < 100 nM
3 | CC(C)c1c(-c2ccc3ncsc3c2)[nH]c2ccc(C3CCN(CC(=O)N(C)C)CC3)cc12 [Example 298, 2-(4-(2-(benzo[d]thiazol-6-yl)-3-isopropyl-1H-indol-5-yl)piperidin-1-yl)-N,N-dimethylacetamide] | 1000 to 50000 nM | < 100 nM | < 100 nM
4 | CC(C)c1c(-c2ccc3occc3c2)[nH]c2ccc(C3CCNCC3)cc12 [Example 67, 2-(benzofuran-5-yl)-3-isopropyl-5-(piperidin-4-yl)-1H-indole] | 1000 to 50000 nM | 100 to 1000 nM | 100 to 1000 nM
5 | COc1c[nH]c2nccc(-c3[nH]c4ccc(C5CCNCC5)cc4c3C)c12 [Example 213, 3-methoxy-4-(3-methyl-5-(piperidin-4-yl)-1H-indol-2-yl)-1H-pyrrolo[2,3-b]pyridine] | 1000 to 50000 nM | 1000 to 50000 nM | 100 to 1000 nM
6 | OCc1c(-c2ccnc3[nH]ncc23)[nH]c2ccc(C3CCNCC3)cc12 [Example 176, (5-(piperidin-4-yl)-2-(1H-pyrazolo[3,4-b]pyridin-4-yl)-1H-indol-3-yl)methanol] | 1000 to 50000 nM | 1000 to 50000 nM | 1000 to 50000 nM
7 | COc1c(C)c(-c2[nH]c3ccc(C4CCNCC4)cc3c2C(C)C)nn2ncnc12 [Example 33, 6-(3-isopropyl-5-(piperidin-4-yl)-1H-indol-2-yl)-8-methoxy-7-methyl-[1,2,4]triazolo[1,5-b]pyridazine] | 100 to 1000 nM | < 100 nM | < 100 nM
8 | CNCCN1CCC(c2ccc3[nH]c(-c4cncc5ccccc45)c(C)c3c2)CC1 [Example 663, 2-(4-(2-(isoquinolin-4-yl)-3-methyl-1H-indol-5-yl)piperidin-1-yl)-N-methylethan-1-amine] | 100 to 1000 nM | 1000 to 50000 nM | > 3130 nM
9 | Cc1cc2nnnn2cc1-c1[nH]c2ccc(C3CCN(CC(N)=O)CC3)cc2c1C(C)C [Example 315, 2-(4-(3-isopropyl-2-(7-methyltetrazolo[1,5-a]pyridin-6-yl)-1H-indol-5-yl)piperidin-1-yl)acetamide] | 1000 to 50000 nM | < 100 nM | < 100 nM
10 | CC(C)c1c(-c2ccnc3[nH]ncc23)[nH]c2ccc(C3CCN(Cc4ncc[nH]4)CC3)cc12 [Example 914, 4-(5-(1-((1H-imidazol-2-yl)methyl)piperidin-4-yl)-3-isopropyl-1H-indol-2-yl)-1H-pyrazolo[3,4-b]pyridine] | 1000 to 50000 nM | < 100 nM | < 100 nM
11 | Cc1cc(-c2[nH]c3ccc(C4CCNCC4)cc3c2C(C)C)cn2cc(C(=O)NCCO)nc12 [Example 267, N-(2-hydroxyethyl)-6-(3-isopropyl-5-(piperidin-4-yl)-1H-indol-2-yl)-8-methylimidazo[1,2-a]pyridine-2-carboxamide] | 1000 to 50000 nM | < 100 nM | < 100 nM
12 | CCc1c(-c2ccnc3[nH]ncc23)[nH]c2ccc(C3CCN(Cc4cncn4C)CC3)cc12 [Example 911, 4-(3-ethyl-5-(1-((1-methyl-1H-imidazol-5-yl)methyl)piperidin-4-yl)-1H-indol-2-yl)-1H-pyrazolo[3,4-b]pyridine] | 1000 to 50000 nM | 100 to 1000 nM | < 100 nM
13 | Cc1cc(-c2[nH]c3ccc(C4CCN(C(=O)CN5CCC(F)(F)C5)CC4)cc3c2C(C)C)cn2nnnc12 [Example 478, 2-(3,3-difluoropyrrolidin-1-yl)-1-(4-(3-isopropyl-2-(8-methyltetrazolo[1,5-a]pyridin-6-yl)-1H-indol-5-yl)piperidin-1-yl)ethan-1-one] | > 50000 nM | < 100 nM | 100 to 1000 nM
14 | CC(C)c1c(-c2ccnc3c2CC(=O)N3)[nH]c2ccc(C3CCNCC3)cc12 [Example 69, 4-(3-isopropyl-5-(piperidin-4-yl)-1H-indol-2-yl)-1,3-dihydro-2H-pyrrolo[2,3-b]pyridin-2-one] | 100 to 1000 nM | 100 to 1000 nM | < 100 nM
15 | Cc1cc2cc(-c3[nH]c4ccc(C5CCNCC5)cc4c3C(C)C)cc(C)n2n1 [Example 142, 5-(3-isopropyl-5-(piperidin-4-yl)-1H-indol-2-yl)-2,7-dimethylpyrazolo[1,5-a]pyridine] | 1000 to 50000 nM | < 100 nM | < 100 nM
